Values joined by “and” are separate entries in the source; they are usually repeats but may differ in a detail not shown here. Equal values may be shown once. “Also recorded” adds a separate entry of the source.
What was measured:
[1] = target: T1, CNGA2 channel (Bos taurus, UniProt Q03041, T537M); test: Stopped-flow flash photolysis of caged cAMP in Fluo-4-loaded flpTM-DmOctβ1 cells; assay type: cell-based, bovine; conditions: for cAMP released by photolysis: based on quantum yield
T1 construct: host or cells: HEK293 flpIn cells (Invitrogen #750-07)
T1 sequence (Q03041 1-663 T537M): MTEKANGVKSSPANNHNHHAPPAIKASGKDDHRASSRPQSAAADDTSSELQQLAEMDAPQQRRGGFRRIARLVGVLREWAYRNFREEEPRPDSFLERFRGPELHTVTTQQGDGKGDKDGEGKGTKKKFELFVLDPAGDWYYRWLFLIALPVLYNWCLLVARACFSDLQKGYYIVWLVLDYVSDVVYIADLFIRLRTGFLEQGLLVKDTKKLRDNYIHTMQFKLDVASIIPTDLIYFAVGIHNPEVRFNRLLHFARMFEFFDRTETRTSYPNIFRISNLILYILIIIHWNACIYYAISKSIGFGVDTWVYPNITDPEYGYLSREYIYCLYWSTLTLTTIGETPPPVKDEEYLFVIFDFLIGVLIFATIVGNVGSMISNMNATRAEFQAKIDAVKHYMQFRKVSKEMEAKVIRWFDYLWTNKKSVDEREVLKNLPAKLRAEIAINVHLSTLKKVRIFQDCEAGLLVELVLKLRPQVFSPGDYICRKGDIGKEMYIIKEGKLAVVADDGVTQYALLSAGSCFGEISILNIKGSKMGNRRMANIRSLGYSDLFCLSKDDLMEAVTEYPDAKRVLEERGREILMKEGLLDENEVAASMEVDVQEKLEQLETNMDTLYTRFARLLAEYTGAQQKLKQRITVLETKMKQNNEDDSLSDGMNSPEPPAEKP
Text: Neutral density filters that regulate the transmission of light (5%, 25%, 50%, 80%, 100%) were installed, allowing application of different light intensities.
As an integral component of the flpTM-DmOctβ1 cell line, the cAMP-sensitive CNG channel (flpTM; see [32]) enables the detection of cellular cAMP dynamics via mediating cAMP-dependent opening of the channel pore and resulting in Ca^2+ influx. […] A (7-diethylaminocoumarin-4-yl)methyl (DEACM)-modified cAMP was used. The FlpTM-DmOctβ1 cells were loaded with Fluo-4 and DEACM-cAMP. For the stopped-flow measurements, the cells were mixed with ES in the cuvette and after 2 s, a UV-flash was triggered for 10 ms to release cAMP. The fluorescence signals were monitored for 12 s. The time point when triggering the light flash was defined as t = 0. Different concentrations of DEACM-cAMP were used (10 µM, 30 µM, 50 µM, and 100 µM) for loading cells. […] In successive experiments, different light intensities were applied (5%, 25%, 50%, 80%, 100%). The experiments were performed in the presence of 100 µM IBMX to avoid fluctuations in cAMP due to cell-endogenous phosphodiesterases.
For the photolysis of the caged compounds with ultraviolet (UV)-light, a Xe-flash lamp (JML-C2; Rapp Opto Electronics, Wedel, Germany) was coupled to the cuvette via an UV-light permeable light guide (Schott). A UV-2 interference filter was placed between the Xe-flash lamp and light guide to select for the UV-light needed for the photolysis of the caged compounds. Additionally, it prevents the photomultiplier from being hit by light that is able to pass the emission filter. The maximal energy of one light flash at the surface of the cuvette was 107 mJ·cm^−2 (set to C2 and 200 V). Neutral density (ND) filters (AHF Analysentechnik, Tübingen, Germany) could be installed between the interference filter and the Xe-flash lamp to regulate the intensity of the UV-light applied to the cuvette. To maximize the detection of the emission light, a test solution containing 50 nM of fluorescein in ES was added to the cuvette and the light guide was fixed to the Xe/Hg-lamp at a position where the photomultiplier detected maximal intensity.

[2] = system: adenylyl cyclases; test: Stopped-flow Ca2+ fluorescence measurements, flpTM-DmOctβ1 cells, NKH477; assay type: cell-based, human
Protocol: In successive stopped-flow measurements, the flpTM-DmOctβ1 cells loaded with Fluo-4 were stimulated with increasing octopamine (1 nM–3 µM) and NKH477 (100 nM–300 µM) concentrations. The fluorescence intensities were monitored over 80 s and 100 s, respectively (Figure 4A1,B1). The fluorescence intensities increased and finally reached a plateau with increasing concentrations of both of the ligands. However, the saturating ligand concentrations differed strongly between octopamine (≥300 nM) and NKH477 (≥100 µM). By plotting the maximal changes in fluorescence (ΔF/F0) against ligand concentrations, concentration–response curves were generated and EC50 values were calculated (Figure 4C). […] As observed for the DmOctα1B cell lines (see Figure 3D), the signal response times of flpTM-DmOctβ1 cells were faster at higher ligand concentrations (Figure 4A2,B2). In Figure 4D, the time until the signals were detected (for details, see Materials and Methods, Section 4.4) are plotted for the ligand concentrations covering the calculated EC50 value (dynamic range) and for saturating concentrations (saturating range). The signal response times of the flpTM-DmOctβ1 cells for octopamine were in the range of 30 s (dynamic range) and 6 s (saturating range), whereas the signal detection upon NKH477 application was observed after 50 s (dynamic range) and 16 s (saturating range). The signal response times were about three- to five-fold faster at the saturating concentrations in comparison to the octopamine and NKH477 concentrations in the dynamic range.
As described for the Fluo-4-loaded flpTM-DmOctβ1 cells, similar experiments were performed with the flpTM-DmOctβ1-GCaMP3.0 cells (Figure 5). The cells were successively mixed with increasing concentrations of octopamine (30 pM–100 nM) or NKH477 (30 nM–100 µM) and the fluorescence intensities were recorded over 100 s. For both of the ligands, increasing ligand concentrations led to an increase in the fluorescence emission finally reaching a plateau (Figure 5A1,B1).
For the stopped-flow measurements, the SFM-400 system (BioLogic, Münster, Germany) was used. The main component of the stopped-flow setup is the SFM-400 module with four 10 mL syringes, which can be filled by external valves. The syringes are driven by step motors. The reactants can be mixed in three individual mixing chambers (M1–M3). The volume between M1 and M2 is 21 µL, and 31 µL between M2 and M3. The observation chamber is a quartz cuvette (FC-15) with a reaction volume of 31 µL, installed behind M3. To avoid fluctuations of the reaction mixture in the cuvette, which might lead to noisy and inconsistent signals, a hard stop valve located behind the cuvette can be closed after injection of the reactants. The stopped-flow module is controlled via a MPS-60 control unit (BioLogic). Data acquisition and operation of the system were performed with the Bio-Kine 32 v4.74 software (BioLogic).
The reactions in the cuvette were analyzed via the changes in the fluorescence. A 150 W Xe/Hg-lamp (ALX-220; BioLogic) was used as a light source for the excitation. The excitation light was guided via a light guide towards the cuvette. To determine the wavelength of the excitation light, a 482 nm bandpass filter (482/35 nm BrightLine® single-band bandpass filter; Semrock, Rochester, NY, USA) was used. A heat protection filter (3 mm; KG1, Schott; Mainz, Germany) was placed between the Xe/Hg-lamp and the excitation filter. The fluorescence was detected with a photomultiplier (PMS 200, BioLogic) installed rectangularly to the light path of the excitation light. Between the cuvette and the photomultiplier tube a 535 nm bandpass emission filter (XF3007 535AF35; Horiba, Oberursel, Germany) was placed to select for the emission light being detected by the photomultiplier. A voltage of 600 V was applied to the photomultiplier.
The fluorescence measurements were performed either directly with the cells expressing GCaMP3.0 or after loading the cells with Fluo-4-AM. […]

[3] = system: cell endogenous adenylyl cyclases; test: Ca2+ fluorimetry in plate reader (96 MWP), flpTM-DmOctβ1 cells stimulated with NKH477; assay type: cell-based, human; conditions: for logEC50 ± SD: given as logEC50 (negative)
Protocol: In another series of experiments, DmOctβ1 receptor-expressing cell lines were incubated with NKH477, a water soluble agonist of membrane bound adenylyl cyclases, the downstream effectors in DmOctβ1 signaling. Before stimulating the adenylyl cyclase activity, NKH477 has to cross the cell membrane and then binds to the catalytic domain of the enzyme. As before, the flpTM-DmOctβ1 cells were seeded in 96 MWPs and loaded with Fluo-4. In parallel, cells stably co-transfected with GCaMP3.0 were examined (flpTM-DmOctβ1-GCaMP3.0). All of the measurements were performed in the presence of 100 µM IBMX. […] In comparison to the octopamine-evoked responses, the EC50 values for NKH477 differed strongly, with values in the nanomolar range for octopamine and in the micromolar range for NKH477, but confirming the previous data on the octopamine receptors and adenylyl cyclases, respectively. […] Whether this effect was due to differences in the cytosolic distribution of both Ca^2+ detectors and/or the spatial presence of adenylyl cyclase isoforms in membrane domains has not been experimentally addressed.
In this study, we made use of previously established stably transfected cell lines. Briefly, human embryonic kidney cells (HEK293; #85120602, ECACC, Porton Down, Salisbury, UK) were transfected with 10 µg of DmOctα1B receptor-encoding construct by a modified calcium phosphate method. The cell line constitutively expressing the DmOctα1B receptors was propagated in MEM+Glutamax medium containing 10% (v/v) fetal calf serum, 1% (v/v) non-essential amino acids, 1% (v/v) antibiotics/antimycotics, and […] Geneticin (all obtained from ThermoFisher Scientific/Gibco; Dreieich, Germany). A related human embryonic kidney 293-based cell line (HEK293; flpIn cells; Invitrogen/ThermoFisher Scientific; #750-07) that was transfected with a gene encoding a variant of the A2-subunit of the olfactory cyclic nucleotide-gated ion channel (CNG; [31]; flpTM cells, provided by Sibion Biosciences, Jülich, Germany) was transfected with 10 µg of DmOctβ1 receptor-encoding construct. The cell line constitutively expressing the CNG channels and DmOctβ1 receptors was named flpTM-DmOctβ1 and propagated in DMEM+Glutamax medium containing 10% (v/v) fetal calf serum, 1% (v/v) penicillin/streptomycin, and 100 µg/mL Hygromycin, as well as […] Geneticin (all obtained from ThermoFisher Scientific/Gibco). […]
To monitor the intracellular changes of Ca^2+, the cells stably transfected with the genetically encoded calcium indicator GCaMP3.0 (Tian et al., 2009) or loaded with the calcium-sensitive fluorescent dye Fluo-4-AM (Life Technologies/Thermo Fisher Scientific) were analyzed in the plate reader FLUOstar Omega (BMG Labtech, Ortenberg, Germany). […]

[4] = flpTM-DmOctβ1-GCaMP3.0 cells, 100 µM IBMX
[5] = flpTM-DmOctβ1 cells loaded with Fluo-4, 100 µM IBMX

## CCN(CC)c1ccc2c(COP3(=O)OC[C@H]4O[C@@H](n5cnc6c(N)ncnc65)[C@H](O)[C@@H]4O3)cc(=O)oc2c1 (stereo partly shown) [DEACM-cAMP]
[1]; cells loaded with 10 µM DEACM-cAMP, light intensities of 80% and 100%, 10 ms flash, 100 µM IBMX
  time from light flash to rise in fluorescence (Ca2+ signal): approximately 60 ms
[1]; cells loaded with 30 µM DEACM-cAMP, 10 ms flash, 100 µM IBMX
  onset of Ca2+ signals after light flash: immediately after the light flash; also recorded: immediately after photolysis
[1]; from 10 µM DEACM-cAMP
  cAMP released by photolysis: approximately 2 µM
[1]; from 30 µM DEACM-cAMP
  cAMP released by photolysis: ~6 µM

## C=C[C@@]1(C)CC(=O)[C@]2(O)[C@@]3(C)[C@@H](O)CCC(C)(C)[C@@H]3[C@H](OC(=O)CCN(C)C)[C@H](OC(C)=O)[C@@]2(C)O1.Cl [NKH477]
[2]; dynamic range (concentrations around EC50), flpTM-DmOctβ1-GCaMP3.0 cells
  Signal Response Time: 40 s
[2]; dynamic range (concentrations around EC50), flpTM-DmOctβ1 cells loaded with Fluo-4
  Signal Response Time: 50 s
[2]; saturating concentration, flpTM-DmOctβ1-GCaMP3.0 cells, mean ± SEM
  Signal Response Time: 13 s and 12.70 ± 0.52 s
[2]; saturating concentration, flpTM-DmOctβ1 cells loaded with Fluo-4, mean ± SEM
  Signal Response Time: 13.35 ± 0.82 s
[2]; saturating ligand concentration, flpTM-DmOctβ1 cell lines, Fluo-4 and GCaMP3.0
  Signal Response Time: 13 s
[2]; stopped-flow, flpTM-DmOctβ1-GCaMP3.0 cells, mean ± SEM
  EC50: 2.1 µM and 2.12 µM
[2]; stopped-flow, flpTM-DmOctβ1 cells loaded with Fluo-4
  saturating ligand concentration: ≥ 100 µM
[2]; stopped-flow, flpTM-DmOctβ1 cells loaded with Fluo-4, mean ± SEM
  EC50: 3.9 µM and 3.92 µM
[3]; [4]
  EC50: 0.1 µM
  logEC50 ± SD: −6.91 ± 0.03
[3]; [5]
  EC50: 4.5 µM
  logEC50 ± SD: −5.34 ± 0.09
